pIC50: −log10 of the molar value.
Columns and labels:
ERK2 = biological target: T1, ERK2 (Homo sapiens, UniProt P28482); assay: ERK2 HTRF (biochemical) assay
T1 construct: purchased Jubilant Biosys
Procedure: (§1) ERK1 and ERK2 HTRF (Biochemical) Assays
These assays employed a homogeneous time resolved fluorescence (HTRF) technique. The compounds were serially diluted by half-log with concentrations ranging from 0.0005 to 10 uM in the assay buffer (50 mM Tris pH=7.5, 1 mM EGTA, 2 mM DTT, 10 mM MgCl2, 0.1% Tween-20) and 20 uL of substrate-ATP mix [1 uM Biotin-LC-Myelin Basic Protein (MBP) derivatized Peptide (Anaspec)-24 uM ATP (Sigma)] was added to each well of the assay plate. Then 10 uL of enzyme mix [25 nM ERK1 or ERK2 (Jubilant Biosys) in assay buffer] was added to each well. The plate was incubated at room temperature for 60 min with shaking. The HTRF mix [625 nM LANCE® Ultra Europium-anti-phospho-MBP (Perkin Elmer) and 2 nM Phycolink® Streptavidin-Allophycocyanin (SA-APC) (Prozyme) in HTRF buffer (50 mM Tris-HCl pH=7.5, 100 mM NaCl, 0.1% BSA, 0.05% Tween20, 0.5 mM EDTA)] was prepared and 75 uL of this mix was added to the HTRF plate. After incubation for 60 min at room temperature, 10 uL of the reaction mixture was transferred to the HTRF assay plate and incubated for 45 min at room temperature with shaking. Plate was read using Pherastar in HTRF mode (excitation 337 nm, emission 665 & 620 nm). The IC50 values (half maximal inhibitory concentration values) were subsequently determined using a sigmoidal dose-response curve (variable slope) in GraphPad Prism® 5 software.

ERK1 = biological target: T2, ERK1 (Homo sapiens, UniProt P27361); assay: ERK1 HTRF (biochemical) assay
T2 construct: purchased Jubilant Biosys
T2 sequence (P27361 whole entry): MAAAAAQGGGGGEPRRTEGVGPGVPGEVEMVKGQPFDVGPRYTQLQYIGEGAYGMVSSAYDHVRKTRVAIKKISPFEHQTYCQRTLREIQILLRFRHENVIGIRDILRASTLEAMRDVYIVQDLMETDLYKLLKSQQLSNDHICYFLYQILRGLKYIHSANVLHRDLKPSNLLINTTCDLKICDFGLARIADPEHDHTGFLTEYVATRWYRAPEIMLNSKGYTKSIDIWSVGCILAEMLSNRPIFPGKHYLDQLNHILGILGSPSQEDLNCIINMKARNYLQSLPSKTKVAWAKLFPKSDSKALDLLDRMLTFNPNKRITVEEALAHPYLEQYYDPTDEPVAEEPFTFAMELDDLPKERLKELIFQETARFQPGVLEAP
Procedure: as §1
These assays employed a homogeneous time resolved fluorescence (HTRF) technique. […] The plate was incubated at room temperature for 60 min with shaking. […] The IC50 values (half maximal inhibitory concentration values) were subsequently determined using a sigmoidal dose-response curve (variable slope) in GraphPad Prism® 5 software.

T1 sequence (P28482 whole entry): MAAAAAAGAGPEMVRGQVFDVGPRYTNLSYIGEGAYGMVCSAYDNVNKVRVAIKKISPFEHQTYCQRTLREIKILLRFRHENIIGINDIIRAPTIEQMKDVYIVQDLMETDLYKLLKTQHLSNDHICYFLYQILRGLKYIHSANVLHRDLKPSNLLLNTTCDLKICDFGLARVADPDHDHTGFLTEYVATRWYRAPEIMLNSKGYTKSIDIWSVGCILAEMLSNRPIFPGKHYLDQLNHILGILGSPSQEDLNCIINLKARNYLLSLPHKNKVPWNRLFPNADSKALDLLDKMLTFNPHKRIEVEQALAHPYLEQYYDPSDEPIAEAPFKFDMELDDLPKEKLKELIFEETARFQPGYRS

Compound	pIC50 (ERK2; HTRF)	pIC50 (ERK1; HTRF)	pIC50 (ERK2; HTRF biochemical assay)	pIC50 (ERK1; HTRF biochemical assay)
O=C(Nc1cnn(-c2ccnc(N[C@H]3CC[C@H](O)CC3)n2)c1)N[C@H](CO)c1cccc(Cl)c1 [Compound 14, 1-((S)-1-(3-chlorophenyl)-2-hydroxyethyl)-3-(1-(2-((trans-4-hydroxycyclohexyl)amino)pyrimidin-4-yl)-1H-pyrazol-4-yl)urea]	6.30 to 7.00	6.30 to 7.00	–	–
Cc1cnc(NC2CCOCC2)nc1-n1cnc(C(=O)N[C@H](CNCC2CC2)c2cccc(Cl)c2)c1 [Example 339, 1-[5-Methyl-2-(tetrahydro-pyran-4-ylamino)-pyrimidin-4-yl]-1H-imidazole-4-carboxylic acid [(S)-1-(3-chloro-phenyl)-2-(cyclopropylmethyl-amino)-ethyl]-amide]	–	–	≥ 7.30	> 7.30
Cc1cnc(NC2CCOCC2)nc1-n1cnc(C(=O)N[C@H](CNC2CCOCC2)c2cccc(Cl)c2)c1 [Example 308, (S)-N-(1-(3-chlorophenyl)-2-((tetrahydro-2H-pyran-4-yl)amino)-ethyl)-1-(5-methyl-2-((tetrahydro-2H-pyran-4-yl)amino)-pyrimidin-4-yl)-1H-imidazole-4-carbox amide]	–	–	≥ 7.30	> 7.30
Cc1cnc(Nc2ccc(F)cc2)nc1-n1cnc(C(=O)NC(CN)c2cccc(Cl)c2)c1 (centres unmarked) [Compound 177, N-(2-amino-1-(3-chlorophenyl)ethyl)-1-(2-((4-fluoro-phenyl)amino)-5-methylpyrimidin-4-yl)-1H-imidazole-4-carboxamide]	≥ 7.30	> 7.30	–	–
Cc1cnc(NC2CCNCC2)nc1-n1cnc(C(=O)NC(CO)c2cccc(Cl)c2)c1 (centres unmarked) [Compound 214, N-(1-(3-chlorophenyl)-2-hydroxyethyl)-1-(5-methyl-2-(piperidin-4-ylamino)pyrimidin-4-yl)-1H-imidazole-4-carboxamide]	≥ 7.30	> 7.30	–	–
Cc1cnc(NC2CCOCC2)nc1-n1cnc(C(=O)N[C@H](CN(C)C)c2cccc(Cl)c2)c1 [Example 320, (S)-N-(1-(3-chlorophenyl)-2-(dimethylamino)-ethyl)-1-(5-methyl-2-((tetrahydro-2H-pyran-4-yl)amino)-pyrimidin-4-yl)-1H-imidazole-4-carboxamide]	–	–	≥ 7.30	> 7.30
Cc1cnc(NC2CCOCC2)nc1-n1cnc(C(=O)NCc2ccccc2C(C)(C)O)c1 [Example 293, N-(2-(2-hydroxy-propan-2-yl)benzyl)-1-(5-methyl-2-((tetrahydro-2H-pyran-4-yl)amino)-pyrimidin-4-yl)-1H-imidazole-4-carboxamide]	≥ 7.30	> 7.30	–	–
Cc1cnc(NC2CC(F)(F)C2)nc1-n1cnc(C(=O)N[C@H](CN)c2cc(F)cc(Cl)c2)c1 [Example 288, (S)-N-(2-amino-1-(3-chloro-5-fluoro-phenyl)ethyl)-1-(2-((3,3-difluoro-cyclobutyl)amino)-5-methylpyrimidin-4-yl)-1H-imidazole-4-carboxamide]	≥ 7.30	> 7.30	–	–
Cc1cnc(Nc2ccc(F)cc2Cl)nc1-n1ccc(C(=O)NC(CN)c2cccc(Cl)c2)c1 (centres unmarked) [Compound 169, N-(2-amino-1-(3-chlorophenyl)ethyl)-1-(2-((2-chloro-4-fluorophenyl)amino)-5-methyl-pyrimidin-4-yl)-1H-pyrrole-3-carboxamide]	7.00 to 7.30	7.00 to 7.30	–	–
Cc1cnc(NC2CC(F)(F)C2)nc1-n1cnc(C(=O)NCc2cccc(Cl)c2CO)c1 [Example 273, N-(3-chloro-2-(hydroxymethyl)benzyl)-1-(2-((3,3-difluorocyclobutyl)amino)-5-methyl-pyrimidin-4-yl)-1H-imidazole-4-carboxamide]	≥ 7.30	> 7.30	–	–
Cc1cnc(Nc2ccc(C3CCNCC3)c(F)c2)nc1-n1ccc(C(=O)NC(CO)c2cccc(Cl)c2)c1 (centres unmarked) [Compound 216, N-(1-(3-chlorophenyl)-2-hydroxyethyl)-1-(2-((3-fluoro-4-(piperidin-4-yl)phenyl)amino)-5-methylpyrimidin-4-yl)-1H-pyrrole-3-carboxamide]	≥ 7.30	> 7.30	–	–
NCC(NC(=O)c1ccn(-c2ccnc(Nc3ccc(F)cc3)c2)c1)c1ccccc1 (centres unmarked) [Compound 206, N-(2-amino-1-phenylethyl)-1-(2-((4-fluorophenyl)-amino)pyridin-4-yl)-1H-pyrrole-3-carboxamide]	≥ 7.30	> 7.30	–	–
Cc1cnc(NC2CCC(F)(F)CC2)nc1-n1cnc(C(=O)N[C@H](CN)c2cccc(Cl)c2)c1 [Example 286, (S)-N-(2-amino-1-(3-chlorophenyl)-ethyl)-1-(2-((4,4-difluorocyclo-hexyl)amino)-5-methylpyrmidin-4-yl)-1H-imidazole-4-carboxamide]	≥ 7.30	> 7.30	–	–

Continued, values first:

pIC50 (ERK2; HTRF)	pIC50 (ERK1; HTRF)	pIC50 (ERK2; HTRF biochemical assay)	pIC50 (ERK1; HTRF biochemical assay)	Compound
≥ 7.30	> 7.30	–	–	CC[C@@H](CO)Nc1ncc(C)c(-n2ccc(C(=O)NC(CO)c3ccccc3)c2)n1 (stereo partly drawn) [Compound 75, N-(2-hydroxy-1-phenylethyl)-1-(2-(((S)-1-hydroxy-butan-2-yl)amino)-5-methylpyrimidin-4-yl)-1H-pyrrole-3-carboxamide]
≥ 7.30	> 7.30	–	–	Cc1cnc(Nc2ccc3c(c2)OCO3)nc1-n1cnc(C(=O)N[C@H](CN)c2cccc(Cl)c2)c1 [Example 266, (S)-N-(2-amino-1-(3-chlorophenyl)-ethyl)-1-(2-(benzo[d][1,3]dioxol-5-ylamino)-5-methylpyrimidin-4-yl)-1H-imidazole-4-carboxamide]
≥ 7.30	> 7.30	–	–	Cc1cnc(Nc2ccnn2C)nc1-n1cnc(C(=O)N[C@H](CN)c2cccc(Cl)c2)c1 [Example 280, (S)-N-(2-amino-1-(3-chlorophenyl)-ethyl)-1-(5-methyl-2-((1-methyl-1H-pyrazol-5-yl)amino)-pyrimidin-4-yl)-1H-imidazole-4-carboxamide]
≥ 7.30	7.00 to 7.30	–	–	Cc1cnc(NC(CO)CO)nc1-n1ccc(C(=O)NC(CO)c2ccccc2)c1 (centres unmarked) [Compound 147, 1-(2-((1,3-dihydroxypropan-2-yl)amino)-5-methylpyrimidin-4-yl)-N-(2-hydroxy-1-phenylethyl)-1H-pyrrole-3-carboxamide]
≥ 7.30	> 7.30	–	–	Cc1cnc(Nc2ccc(F)cc2)nc1-n1ccc(C(=O)NC(CO)c2ccccc2)c1 (centres unmarked) [Compound 114, 1-(2-((4-fluoro-phenyl)amino)-5-methylpyrimidin-4-yl)-N-(2-hydroxy-1-phenylethyl)-1H-pyrrole-3-carboxamide]
≥ 7.30	> 7.30	–	–	Cc1cnc(Nc2ccc3c(c2)OCCO3)nc1-n1ccc(C(=O)NC(CO)c2cccc(Cl)c2)c1 (centres unmarked) [Compound 139, N-(1-(3-chloro-phenyl)-2-hydroxyethyl)-1-(2-((2,3-dihydro-benzo[b][1,4]dioxin-6-yl)amino)-5-methylpyrimidin-4-yl)-1H-pyrrole-3-carboxamide]
≥ 7.30	> 7.30	–	–	Cc1cnc(NC2CCOCC2)nc1-n1cnc(C(=O)NC(CN)c2cccs2)c1 (centres unmarked) [Example 267, N-(2-amino-1-(thiophen-2-yl)ethyl)-1-(5-methyl-2-((tetrahydro-2H-pyran-4-yl)amino)-pyrimidin-4-yl)-1H-imidazole-4-carboxamide]
≥ 7.30	> 7.30	–	–	Cc1cnc(NC2CCOC2)nc1-n1ccc(C(=O)NC(CO)c2cccc(Cl)c2)c1 (centres unmarked) [Compound 123, N-(1-(3-chlorophenyl)-2-hydroxyethyl)-1-(5-methyl-2-((tetrahydrofuran-3-yl)amino)pyrimidin-4-yl)-1H-pyrrole-3-carboxamide]
≥ 7.30	> 7.30	–	–	Cc1cnc(NC2CC2)nc1-n1ccc(C(=O)NC(CO)c2cccc(Cl)c2)c1 (centres unmarked) [Compound 115, N-(1-(3-chloro-phenyl)-2-hydroxy-ethyl)-1-(2-(cyclopropylamino)-5-methylpyrimidin-4-yl)-1H-pyrrole-3-carboxamide]
≥ 7.30	> 7.30	–	–	Cc1cnc(NC2CCCOC2)nc1-n1ccc(C(=O)NC(CO)c2ccccc2)c1 (centres unmarked) [Compound 141, N-(2-hydroxy-1-phenylethyl)-1-(5-methyl-2-((tetrahydro-2H-pyran-3-yl)amino)-pyrimidin-4-yl)-1H-pyrrole-3-carboxamide]
≥ 7.30	> 7.30	–	–	COc1cc(Nc2ncc(C)c(-n3ccc(C(=O)N[C@H](CO)c4ccc(F)c(Cl)c4)c3)n2)cc(OC)c1OC [Compound 126, (S)-N-(1-(3-chloro-4-fluorophenyl)-2-hydroxyethyl)-1-(5-methyl-2-((3,4,5-trimethoxyphenyl)amino)pyrimidin-4-yl)-1H-pyrrole-3-carboxamide]
≥ 7.30	> 7.30	–	–	COc1cc(Nc2ncc(C)c(-n3ccc(C(=O)NC(CO)c4ccccc4)c3)n2)ccc1F (centres unmarked) [Compound 154, 1-(2-((4-fluoro-3-methoxyphenyl)amino)-5-methyl-pyrimidin-4-yl)-N-(2-hydroxy-1-phenylethyl)-1H-pyrrole-3-carboxamide]

— patent US9896445B2, “Heterocyclic inhibitors of ERK1 and ERK2 and their use in the treatment of cancer” (Asana Biosciences, LLC, priority 2015, dated 2018)
